Tests used:
KRas G12D = KRas G12D (Homo sapiens, UniProt P01116, G12D); assay: biochemical;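 also: TR-FRET displacement binding assay on KRas, read after a one-hour incubation at room temperature, IC50 fitted from percent-of-control values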
Method: (§1) The ability of a compound to bind to KRas was measured using a TR-FRET displacement assay. […] After a 60-minute incubation at room temperature, the reaction was measured using a BMG LABTECH CLARIO star Plus via TR-FRET. […] The POC values were fit to a 4-parameter IC50 equation and the IC50 value reported.

KRas WT = KRas WT (Homo sapiens, UniProt P01116); assay: biochemical;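 also: binding to KRas read as TR-FRET displacement after a one-hour room-temperature incubation, IC50 derived from percent-of-control values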
Method: as §1

KRas G12R = KRas G12R (Homo sapiens, UniProt P01116, G12R); assay: biochemical;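 also: TR-FRET displacement assay of compound binding to KRas, read after one hour at room temperature, potency from a four-parameter fit of percent-of-control values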
Sequence of KRas G12R (P01116 1-169 isoform P01116-2 G12R): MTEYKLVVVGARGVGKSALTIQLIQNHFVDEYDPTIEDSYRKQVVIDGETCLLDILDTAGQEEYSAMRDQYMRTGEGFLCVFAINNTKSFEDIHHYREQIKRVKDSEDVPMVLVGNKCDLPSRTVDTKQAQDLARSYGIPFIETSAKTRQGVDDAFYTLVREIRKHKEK
Method: as §1

KRas G13D = biological target: T1, KRas G13D (Homo sapiens, UniProt P01116, G13D); assay: KRas binding assay (TR-FRET displacement);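 also: One-hour room temperature incubation before TR-FRET reading, IC50 from a four-parameter curve fit to percent-of-control data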
T1 construct: Biotinylated KRas (corresponding to amino acids 1-169, produced at Accelegan Inc.); biotin (biotinylated); purchased Accelegan Inc
T1 sequence (P01116 1-169 isoform P01116-2 G13D): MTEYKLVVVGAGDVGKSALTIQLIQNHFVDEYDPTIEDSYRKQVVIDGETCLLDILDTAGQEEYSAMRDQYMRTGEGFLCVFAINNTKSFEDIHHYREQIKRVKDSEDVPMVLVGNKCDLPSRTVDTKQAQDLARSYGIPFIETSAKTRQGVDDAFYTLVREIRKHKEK
Method: as §1

KRas G12A = KRas G12A (Homo sapiens, UniProt P01116, G12A); assay: biochemical;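 also: binding to KRas measured by TR-FRET displacement after one hour at room temperature, IC50 from a four-parameter fit of percent-of-control values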
Sequence of KRas G12A (P01116 1-169 isoform P01116-2 G12A): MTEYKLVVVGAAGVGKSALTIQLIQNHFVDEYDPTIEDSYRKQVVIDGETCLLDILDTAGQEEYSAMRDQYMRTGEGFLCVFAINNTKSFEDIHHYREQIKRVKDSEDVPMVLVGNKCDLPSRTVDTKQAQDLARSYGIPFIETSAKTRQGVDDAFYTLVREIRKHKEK
Method: as §1

KRas G12S = KRas G12S (Homo sapiens, UniProt P01116, G12S); assay: biochemical;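 also: TR-FRET displacement binding to KRas, read after one hour incubation at room temperature, IC50 from four-parameter fit of percent of control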
Sequence of KRas G12S (P01116 1-169 isoform P01116-2 G12S): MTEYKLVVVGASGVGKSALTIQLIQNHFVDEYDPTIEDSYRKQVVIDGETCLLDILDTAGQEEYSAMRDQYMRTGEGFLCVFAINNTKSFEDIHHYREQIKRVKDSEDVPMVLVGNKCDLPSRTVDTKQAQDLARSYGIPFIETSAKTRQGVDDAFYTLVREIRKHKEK
Method: as §1

KRas G12V = KRas G12V (Homo sapiens, UniProt P01116, G12V); assay: biochemical;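 also: KRas binding measured by TR-FRET displacement at room temperature, IC50 fitted from percent of control values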
Sequence of KRas G12V (P01116 1-169 isoform P01116-2 G12V): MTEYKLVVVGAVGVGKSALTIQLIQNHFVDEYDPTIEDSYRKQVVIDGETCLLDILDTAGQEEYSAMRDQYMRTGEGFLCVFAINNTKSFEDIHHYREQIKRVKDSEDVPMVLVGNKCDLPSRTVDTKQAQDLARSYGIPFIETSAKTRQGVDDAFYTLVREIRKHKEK
Method: as §1

KRas G12C = KRas G12C (Homo sapiens, UniProt P01116, G12C); assay: biochemical;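 also: binding to KRas assessed by TR-FRET displacement after one hour incubation at room temperature, potency fitted from percent-of-control values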
Sequence of KRas G12C (P01116 1-169 isoform P01116-2 G12C): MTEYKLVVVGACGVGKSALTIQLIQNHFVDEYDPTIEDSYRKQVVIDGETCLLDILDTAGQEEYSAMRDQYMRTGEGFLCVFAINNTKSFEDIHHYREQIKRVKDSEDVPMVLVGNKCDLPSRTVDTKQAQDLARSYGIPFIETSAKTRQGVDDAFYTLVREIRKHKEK
Method: as §1

KRas Q61H = biological target: T2, KRas Q61H (Homo sapiens, UniProt P01116, Q61H); assay: KRas binding assay (TR-FRET displacement);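 also: TR-FRET signal read after one hour at room temperature, IC50 derived by four-parameter fitting of percent-of-control values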
T2 construct: Biotinylated KRas (corresponding to amino acids 1-169, produced at Accelegan Inc.); biotin (biotinylated); purchased Accelegan Inc
T2 sequence (P01116 1-169 isoform P01116-2 Q61H): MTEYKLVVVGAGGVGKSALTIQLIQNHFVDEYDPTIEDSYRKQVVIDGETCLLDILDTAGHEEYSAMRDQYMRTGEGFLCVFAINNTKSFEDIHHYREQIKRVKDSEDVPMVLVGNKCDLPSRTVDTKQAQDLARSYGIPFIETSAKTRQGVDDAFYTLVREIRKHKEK
Method: as §1

Sequence of KRas G12D (P01116 1-169 isoform P01116-2 G12D): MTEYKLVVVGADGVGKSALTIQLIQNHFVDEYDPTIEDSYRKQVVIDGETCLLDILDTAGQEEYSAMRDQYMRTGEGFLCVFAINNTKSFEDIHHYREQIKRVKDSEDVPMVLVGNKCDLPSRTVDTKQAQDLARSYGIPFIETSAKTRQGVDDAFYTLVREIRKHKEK
Sequence of KRas WT (P01116 1-169 isoform P01116-2): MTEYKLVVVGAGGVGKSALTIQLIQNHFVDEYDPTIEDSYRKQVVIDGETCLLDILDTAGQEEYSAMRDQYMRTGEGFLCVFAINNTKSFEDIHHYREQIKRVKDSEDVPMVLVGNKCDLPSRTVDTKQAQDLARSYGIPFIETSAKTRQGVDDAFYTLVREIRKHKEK

Row | Compound | IC50 (KRas G12D) [µM] | IC50 (KRas WT) [µM] | IC50 (KRas G12R) [µM] | IC50 (KRas G13D) [nM] | IC50 (KRas G12A) [µM] | IC50 (KRas G12S) [µM] | IC50 (KRas G12V) [µM] | IC50 (KRas G12C) [µM] | IC50 (KRas Q61H) [nM]
1 | Fc1c(-c2cccc3cccc(F)c23)ncc2c(NCc3ccc4nccn4c3)nc(OCC34CCCN3CCC4)nc12 [Example 208, 8-fluoro-7-(8-fluoronaphthalen-1-yl)-N-(imidazo[1,2-a]pyridin-6-ylmethyl)-2-((tetrahydro-1H-pyrrolizin-7a(5H)-yl)methoxy)pyrido[4,3-d]pyrimidin-4-amine] | 17.4 | 4.01 | 0.494 | 6250 | 1.3 | 2.26 | 0.824 | 0.677 | 7150
2 | N#Cc1cccnc1N1CCN(c2nc(OCC34CCCN3CCC4)nc3c(F)c(-c4cccc5cccc(F)c45)ncc23)CC1 [Example 209, 2-(4-(8-fluoro-7-(8-fluoronaphthalen-1-yl)-2-((tetrahydro-1H-pyrrolizin-7a(5H)-yl)methoxy)pyrido[4,3-d]pyrimidin-4-yl)piperazin-1-yl)nicotinonitrile] | 63.4 | 4.96 | 1.61 | 13300 | 3.7 | 10.1 | 2.35 | 2.52 | 12700
3 | Fc1c(-c2cccc3cccc(F)c23)ncc2c(Nc3cnn(-c4ccncc4)c3)nc(OCC34CCCN3CCC4)nc12 [Example 210, 8-fluoro-7-(8-fluoronaphthalen-1-yl)-N-(1-(pyridin-4-yl)-1H-pyrazol-4-yl)-2-((tetrahydro-1H-pyrrolizin-7a(5H)-yl)methoxy)pyrido[4,3-d]pyrimidin-4-amine] | ≥ 100 | ≥ 100 | 37.8 | ≥ 100000 | 66.5 | ≥ 100 | 2.94 | 43.3 | ≥ 100000
4 | Fc1c(-c2cccc3cccc(F)c23)ncc2c(NCCNc3cccnc3)nc(OCC34CCCN3CCC4)nc12 [Example 211, N1-(8-fluoro-7-(8-fluoronaphthalen-1-yl)-2-((tetrahydro-1H-pyrrolizin-7a(5H)-yl)methoxy)pyrido[4,3-d]pyrimidin-4-yl)-N2-(pyridin-3-yl)ethane-1,2-diamine] | ≥ 100 | 16.9 | 8.03 | 20200 | 12.2 | 18.7 | 14.7 | 10.4 | 29800
5 | Fc1c(-c2cccc3cccc(F)c23)ncc2c(NCCc3c[nH]c4ncccc34)nc(OCC34CCCN3CCC4)nc12 [Example 212, N-(2-(1H-pyrrolo[2,3-b]pyridin-3-yl)ethyl)-8-fluoro-7-(8-fluoronaphthalen-1-yl)-2-((tetrahydro-1H-pyrrolizin-7a(5H)-yl)methoxy)pyrido[4,3-d]pyrimidin-4-amine] | 15.6 | 8.36 | 0.88 | 10100 | 2.83 | 6.45 | 1.35 | 3.12 | 17400
6 | Fc1c(-c2cccc3cccc(F)c23)ncc2c(N3CC(c4ccncc4)C3)nc(OCC34CCCN3CCC4)nc12 [Example 213, 8-fluoro-7-(8-fluoronaphthalen-1-yl)-4-(3-(pyridin-4-yl)azetidin-1-yl)-2-((tetrahydro-1H-pyrrolizin-7a(5H)-yl)methoxy)pyrido[4,3-d]pyrimidine] | ≥ 100 | 16.8 | 4.25 | 20500 | 6.19 | 7.25 | 5.57 | 4.2 | 17700
7 | Fc1c(-c2cccc3cccc(F)c23)ncc2c(NCc3cnn4cccnc34)nc(OCC34CCCN3CCC4)nc12 [Example 214, 8-fluoro-7-(8-fluoronaphthalen-1-yl)-N-(pyrazolo[1,5-a]pyrimidin-3-ylmethyl)-2-((tetrahydro-1H-pyrrolizin-7a(5H)-yl)methoxy)pyrido[4,3-d]pyrimidin-4-amine] | ≥ 100 | 60 | 16.4 | 95100 | 28.8 | 34.6 | 12.6 | 9.59 | 81100
8 | Fc1c(-c2cccc3cccc(F)c23)ncc2c(NCCc3ccn[nH]3)nc(OCC34CCCN3CCC4)nc12 [Example 215, N-(2-(1H-pyrazol-5-yl)ethyl)-8-fluoro-7-(8-fluoronaphthalen-1-yl)-2-((tetrahydro-1H-pyrrolizin-7a(5H)-yl)methoxy)pyrido[4,3-d]pyrimidin-4-amine] | ≥ 100 | 34 | 8.95 | 47100 | 26.1 | 23.5 | 17 | 17.8 | 57500
9 | N#Cc1ccccc1N1CCN(c2nc(OCC34CCCN3CCC4)nc3c(F)c(-c4cccc5cccc(F)c45)ncc23)CC1 [Example 216, 2-(4-(8-fluoro-7-(8-fluoronaphthalen-1-yl)-2-((tetrahydro-1H-pyrrolizin-7a(5H)-yl)methoxy)pyrido[4,3-d]pyrimidin-4-yl)piperazin-1-yl)benzonitrile] | ≥ 100 | 30.9 | 2.57 | 59000 | 13.8 | 41 | 17.9 | 6.3 | 83200
10 | O=C1NCC2(CCN(c3nc(OCC45CCCN4CCC5)nc4c(F)c(-c5cccc6cccc(F)c56)ncc34)CC2)N1 [Example 217, 8-(8-fluoro-7-(8-fluoronaphthalen-1-yl)-2-((tetrahydro-1H-pyrrolizin-7a(5H)-yl)methoxy)pyrido[4,3-d]pyrimidin-4-yl)-1,3,8-triazaspiro[4.5]decan-2-one] | 64.4 | 14 | 7.57 | 11600 | 8.99 | 11.3 | 5.16 | 9.88 | 19500
11 | Fc1c(-c2cccc3cccc(F)c23)ncc2c(Nc3ccc4cn[nH]c4c3)nc(OCC34CCCN3CCC4)nc12 [Example 218, 8-fluoro-7-(8-fluoronaphthalen-1-yl)-N-(1H-indazol-6-yl)-2-((tetrahydro-1H-pyrrolizin-7a(5H)-yl)methoxy)pyrido[4,3-d]pyrimidin-4-amine] | 65.9 | 28.9 | 6.53 | ≥ 100000 | 14.8 | 23.2 | 2.84 | 6.88 | 84800
12 | Fc1c(-c2cccc3cccc(F)c23)ncc2c(NCCc3cnoc3)nc(OCC34CCCN3CCC4)nc12 [Example 219, 8-fluoro-7-(8-fluoronaphthalen-1-yl)-N-(2-(isoxazol-4-yl)ethyl)-2-((tetrahydro-1H-pyrrolizin-7a(5H)-yl)methoxy)pyrido[4,3-d]pyrimidin-4-amine] | 65.3 | 15 | 4.78 | 18100 | 16.2 | 13.1 | 8.83 | 5.65 | 20200
13 | Fc1c(-c2cccc3cccc(F)c23)ncc2c(N3CCCC4(COC4)C3)nc(OCC34CCCN3CCC4)nc12 [Example 220, 6-(8-fluoro-7-(8-fluoronaphthalen-1-yl)-2-((tetrahydro-1H-pyrrolizin-7a(5H)-yl)methoxy)pyrido[4,3-d]pyrimidin-4-yl)-2-oxa-6-azaspiro[3.5]nonane] | 10.8 | 5.57 | 8.67 | 6700 | 6.75 | 6.31 | 6.07 | 8.25 | 7470
14 | NS(=O)(=O)CC1CCCN(c2nc(OCC34CCCN3CCC4)nc3c(F)c(-c4cccc5cccc(F)c45)ncc23)C1 (stereo not drawn) [Example 221, 1-(1-(8-fluoro-7-(8-fluoronaphthalen-1-yl)-2-((tetrahydro-1H-pyrrolizin-7a(5H)-yl)methoxy)pyrido[4,3-d]pyrimidin-4-yl)piperidin-3-yl)methanesulfonamide] | 0.586 | 0.284 | 0.191 | 308 | 0.271 | 0.313 | 0.556 | 0.498 | 231
15 | Fc1c(-c2cccc3cccc(F)c23)ncc2c(NCc3cnn4c3OCCC4)nc(OCC34CCCN3CCC4)nc12 [Example 222, N-((6,7-dihydro-5H-pyrazolo[5,1-b][1,3]oxazin-3-yl)methyl)-8-fluoro-7-(8-fluoronaphthalen-1-yl)-2-((tetrahydro-1H-pyrrolizin-7a(5H)-yl)methoxy)pyrido[4,3-d]pyrimidin-4-amine] | ≥ 100 | 35.9 | 31.2 | 70100 | 17.8 | 26.9 | 18.2 | 8.98 | 52900
16 | CN(Cc1c[nH]c2ncccc12)c1nc(OCC23CCCN2CCC3)nc2c(F)c(-c3cccc4cccc(F)c34)ncc12 [Example 223, N-((1H-pyrrolo[2,3-b]pyridin-3-yl)methyl)-8-fluoro-7-(8-fluoronaphthalen-1-yl)-N-methyl-2-((tetrahydro-1H-pyrrolizin-7a(5H)-yl)methoxy)pyrido[4,3-d]pyrimidin-4-amine] | 21.1 | 5.6 | 0.665 | 6870 | 1.36 | 1.8 | 0.93 | 1.19 | 8650

— patent publication US12398154B2, “Azaquinazoline pan-KRas inhibitors” (Mirati Therapeutics, Inc., priority 2020, dated 2025)
